Measured values taken from ChEMBL document CHEMBL4219086, “Development of benzoxazole deoxybenzoin oxime and acyloxylamine derivatives targeting innate immune sensors and xanthine oxidase for treatment of gout” (Bioorg Med Chem, 2018).
The source made the active and inactive calls. No cut-off for these calls is given here.

Legend:
[1] = system: Rattus norvegicus; assay: Inhibition of MSU-induced phosphorylated IkappaB protein level in synovial homogenate of acute gouty arthritis Sprague-Dawley rat model at 2.5 to 10 mg/kg, po qd pretreated via gavage for 5 days followed by MSU treatment at 1 hr post last dose measured up to 24 hrs by Western blot method; assay type: functional, organism-based
[2] = system: Mus musculus; assay: In vivo inhibition of XOD activity in liver of Kunming mouse model of potassium oxonate-induced hyperuricemia administered po 1 hr post potassium oxonate addition measured after 1 hr; assay type: functional, organism-based
[3] = system: Rattus norvegicus; assay: Inhibition of MSU-induced caspase-1 protein level in synovial homogenate of acute gouty arthritis Sprague-Dawley rat model at 2.5 to 10 mg/kg, po qd pretreated via gavage for 5 days followed by MSU treatment at 1 hr post last dose measured up to 24 hrs by Western blot method; assay type: functional, organism-based
[4] = system: Rattus norvegicus; assay: (§1) Antiarthritic activity in MSU-induced acute gouty arthritis Sprague-Dawley rat model assessed as reduction in ankle swelling by measuring perimeter of ankle at 10 mg/kg, po qd pretreated via gavage for 5 days followed by MSU treatment at 1 hr post last dose measured immediately (reference value: 2.64 +/- 0.81 cm); assay type: functional
[5] = system: Rattus norvegicus; assay: Inhibition of MSU-induced IL-1beta level in serum of acute gouty arthritis Sprague-Dawley rat model at 2.5 to 10 mg/kg, po qd pretreated via gavage for 5 days followed by MSU treatment at 1 hr post last dose measured up to 24 hrs by ELISA; assay type: functional, organism-based
[6] = system: Rattus norvegicus; assay: as §1, with “5” for “10”, “after 24 hrs” for “immediately”, “3.35” for “2.64”, “0.5” for “0.81”; assay type: functional
[7] = system: Rattus norvegicus; assay: as §1, with “2.5” for “10”, “after 24 hrs” for “immediately”, “3.35” for “2.64”, “0.5” for “0.81”; assay type: functional
[8] = system: Mus musculus; assay: Anti-hyperuricemic effect in Kunming mouse assessed as inhibition of potassium oxonate-induced serum uric acid level administered po 1 hr post potassium oxonate addition measured after 1 hr by phosphotungstic acid method; assay type: functional, organism-based
[9] = system: Mus musculus; assay: In vivo inhibition of XOD activity in liver of Kunming mouse model of potassium oxonate-induced hyperuricemia at 5 mg/kg, po treated 1 hr post potassium oxonate addition measured after 1 hr relative to control; assay type: functional
[10] = target: Xanthine dehydrogenase/oxidase (Homo sapiens, UniProt P47989); assay: Competitive inhibition of Xanthine oxidase (unknown origin) using xanthine as substrate preincubated for 1 to 5 mins followed by substrate addition by Lineweaver-Burk plot analysis
Xanthine dehydrogenase/oxidase, sequence (P47989 whole entry): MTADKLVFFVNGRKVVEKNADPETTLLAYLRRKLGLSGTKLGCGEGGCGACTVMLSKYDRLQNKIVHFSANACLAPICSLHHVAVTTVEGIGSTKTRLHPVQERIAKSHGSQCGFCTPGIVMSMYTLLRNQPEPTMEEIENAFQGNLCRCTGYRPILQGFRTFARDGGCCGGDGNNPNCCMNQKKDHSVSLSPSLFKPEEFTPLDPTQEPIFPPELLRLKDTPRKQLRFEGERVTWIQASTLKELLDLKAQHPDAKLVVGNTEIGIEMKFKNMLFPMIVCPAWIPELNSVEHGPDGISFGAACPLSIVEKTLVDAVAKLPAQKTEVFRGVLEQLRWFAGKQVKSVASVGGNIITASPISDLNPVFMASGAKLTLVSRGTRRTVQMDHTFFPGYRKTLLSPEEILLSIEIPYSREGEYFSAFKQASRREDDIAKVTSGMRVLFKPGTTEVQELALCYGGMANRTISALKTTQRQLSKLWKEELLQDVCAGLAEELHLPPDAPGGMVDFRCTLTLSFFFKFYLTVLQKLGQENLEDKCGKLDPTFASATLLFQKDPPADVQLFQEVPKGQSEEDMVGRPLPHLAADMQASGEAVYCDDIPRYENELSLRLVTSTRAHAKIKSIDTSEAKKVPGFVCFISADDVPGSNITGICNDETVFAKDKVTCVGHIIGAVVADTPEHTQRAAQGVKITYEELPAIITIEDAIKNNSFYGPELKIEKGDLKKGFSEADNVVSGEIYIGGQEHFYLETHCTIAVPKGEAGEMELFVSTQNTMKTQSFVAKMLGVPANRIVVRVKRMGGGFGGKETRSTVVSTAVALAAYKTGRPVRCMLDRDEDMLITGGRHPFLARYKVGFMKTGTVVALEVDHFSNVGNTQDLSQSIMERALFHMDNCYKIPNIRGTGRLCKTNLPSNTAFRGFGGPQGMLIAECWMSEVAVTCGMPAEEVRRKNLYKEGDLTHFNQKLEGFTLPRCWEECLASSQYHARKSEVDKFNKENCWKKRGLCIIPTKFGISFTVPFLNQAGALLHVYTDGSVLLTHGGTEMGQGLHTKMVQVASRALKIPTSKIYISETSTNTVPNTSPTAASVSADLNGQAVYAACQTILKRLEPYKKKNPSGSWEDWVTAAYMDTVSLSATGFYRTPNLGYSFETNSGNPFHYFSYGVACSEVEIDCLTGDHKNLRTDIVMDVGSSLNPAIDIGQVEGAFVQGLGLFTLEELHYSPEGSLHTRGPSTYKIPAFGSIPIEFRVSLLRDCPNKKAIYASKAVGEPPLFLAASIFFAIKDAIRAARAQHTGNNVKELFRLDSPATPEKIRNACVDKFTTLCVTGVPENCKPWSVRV

[11] = system: Rattus norvegicus; assay: as §1, with “after 8 hrs” for “immediately”, “3.27” for “2.64”, “0.56” for “0.81”; assay type: functional
[12] = system: Rattus norvegicus; assay: as §1, with “after 12 hrs” for “immediately”, “3.51” for “2.64”, “0.52” for “0.81”; assay type: functional
[13] = system: Mus musculus; assay: Hypouricemic effect in Kunming mouse assessed as inhibition of hepatic XOD activity at 2.5 mg/kg, po measured after 1 hr relative to control; assay type: organism-based

- Ki [10]: 2.89 µM
SMILES: COc1ccc(C/C(=N\O)c2nc3ccc(OC)cc3o2)cc1
- inhibition [1]: Active
- inhibition [2]: Dose-dependent effect
- inhibition [3]: Active
- Activity [4]: 2.56 cm
- inhibition [5]: Active
- Activity [6]: 2.8 cm
- Activity [7]: 2.97 cm
- inhibition [8]: Dose-dependent effect
- inhibition in vivo at 5 mg/kg [9]: 35.8%
- Activity [11]: 2.72 cm
- Activity [12]: 2.7 cm
- inhibition at 2.5 mg/kg [13]: 3.7%
